Experiments:
Assay type in all cases: in vivo
Setaria (Seta) [1] = experiment: Post-emergence herbicidal action (Example B2); details: 1000 g of active ingredient/ha, evaluated after 2 to 3 weeks, scale 1-9
Protocol: (§1) Monocotyledonous and dicotyledonous test plants are sown in standard soil in pots. When the test plants are at the 2- to 3-leaf stage, the test compounds, in the form of an aqueous suspension (prepared from a wettable powder (Example F3, b) according to WO 97/34485) or in the form of an emulsion (prepared from an emulsifiable concentrate (Example F1, c) according to WO 97/34485), are applied by spraying in an optimum concentration (500 litres of water/ha). The test plants are then grown on in a greenhouse under optimum conditions. After a test duration of 2 to 3 weeks, the test is evaluated in accordance with a scale of nine ratings (1=total damage, 9=no action). Ratings of from 1 to 4 (especially from 1 to 3) indicate good to very good herbicidal action. Test plants: Setaria (Seta), Panicum (Pani), Echinochloa (Ds) (Echino), Amaranthus (Amar), Chenopodium (Cheno), Stellaria (Stella), Veronica, Euphorbia (Eupho).

Panicum (Pani) [2] = experiment: Post-emergence herbicidal action (Example B2); details: 1000 g of active ingredient/ha, evaluated after 2 to 3 weeks, scale 1-9
Protocol: as §1

Chenopodium (Cheno) [3] = experiment: Post-emergence herbicidal action (Example B2); details: 1000 g of active ingredient/ha, evaluated after 2 to 3 weeks, scale 1-9
Protocol: as §1

[4] = system: Echinochloa (Ds) (Echino); experiment: Post-emergence herbicidal action (Example B2); details: 1000 g of active ingredient/ha, evaluated after 2 to 3 weeks, scale 1-9
Protocol: as §1

Euphorbia (Eupho) [5] = experiment: Post-emergence herbicidal action (Example B2); design: key: 1=total damage; 9=no action; Ratings of from 1 to 4 (especially from 1 to 3) indicate good to very good herbicidal action; details: 1000 g of active ingredient/ha, evaluated after 2 to 3 weeks, scale 1-9
Protocol: as §1

Amaranthus (Amar) [6] = experiment: Post-emergence herbicidal action (Example B2); design: key: 1=total damage; 9=no action; Ratings of from 1 to 4 (especially from 1 to 3) indicate good to very good herbicidal action; details: 1000 g of active ingredient/ha, evaluated after 2 to 3 weeks, scale 1-9
Protocol: as §1

Euphorbia (Eupho) [7] = experiment: Pre-emergence herbicidal action (Example B1); design: key: 1=total damage; 9=no action; Ratings of from 1 to 4 (especially from 1 to 3) indicate good to very good herbicidal action; details: 1000 g of active ingredient/ha, 4 weeks, scale of nine ratings
Protocol: as §1, with “Immediately after sowing,” for “When the test plants are at the 2- to 3-leaf stage,”, “grown” for “grown on”, “4” for “2 to 3”, “(Eupho), Brachiaria (Brachi).” for “(Eupho).”

Amaranthus (Amar) [8] = experiment: Pre-emergence herbicidal action (Example B1); design: key: 1=total damage; 9=no action; Ratings of from 1 to 4 (especially from 1 to 3) indicate good to very good herbicidal action; details: 1000 g of active ingredient/ha, 4 weeks, scale of nine ratings
Protocol: as §1, with “Immediately after sowing,” for “When the test plants are at the 2- to 3-leaf stage,”, “grown” for “grown on”, “4” for “2 to 3”, “(Eupho), Brachiaria (Brachi).” for “(Eupho).”

Setaria (Seta) [9] = experiment: Pre-emergence herbicidal action (Example B1); design: key: 1=total damage; 9=no action; Ratings of from 1 to 4 (especially from 1 to 3) indicate good to very good herbicidal action; details: 1000 g of active ingredient/ha, 4 weeks, scale of nine ratings
Protocol: as §1, with “Immediately after sowing,” for “When the test plants are at the 2- to 3-leaf stage,”, “grown” for “grown on”, “4” for “2 to 3”, “(Eupho), Brachiaria (Brachi).” for “(Eupho).”

Panicum (Pani) [10] = experiment: Pre-emergence herbicidal action (Example B1); design: key: 1=total damage; 9=no action; Ratings of from 1 to 4 (especially from 1 to 3) indicate good to very good herbicidal action; details: 1000 g of active ingredient/ha, 4 weeks, scale of nine ratings
Protocol: as §1, with “Immediately after sowing,” for “When the test plants are at the 2- to 3-leaf stage,”, “grown” for “grown on”, “4” for “2 to 3”, “(Eupho), Brachiaria (Brachi).” for “(Eupho).”

Brachiaria (Brachi) = experiment: Pre-emergence herbicidal action (Example B1); design: key: 1=total damage; 9=no action; Ratings of from 1 to 4 (especially from 1 to 3) indicate good to very good herbicidal action; details: 1000 g of active ingredient/ha, 4 weeks, scale of nine ratings
Protocol: as §1, with “Immediately after sowing,” for “When the test plants are at the 2- to 3-leaf stage,”, “grown” for “grown on”, “4” for “2 to 3”, “(Eupho), Brachiaria (Brachi).” for “(Eupho).”

[11] = system: Echinochloa (Ds) (Echino); experiment: Pre-emergence herbicidal action (Example B1); design: key: 1=total damage; 9=no action; Ratings of from 1 to 4 (especially from 1 to 3) indicate good to very good herbicidal action; details: 1000 g of active ingredient/ha, 4 weeks, scale of nine ratings
Protocol: as §1, with “Immediately after sowing,” for “When the test plants are at the 2- to 3-leaf stage,”, “grown” for “grown on”, “4” for “2 to 3”, “(Eupho), Brachiaria (Brachi).” for “(Eupho).”

Veronica [12] = experiment: Post-emergence herbicidal action (Example B2); details: 1000 g of active ingredient/ha, evaluated after 2 to 3 weeks, scale 1-9
Protocol: as §1

Stellaria (Stella) [13] = experiment: Post-emergence herbicidal action (Example B2); details: 1000 g of active ingredient/ha, evaluated after 2 to 3 weeks, scale 1-9
Protocol: as §1

Veronica [14] = experiment: Pre-emergence herbicidal action (Example B1); details: 1000 g of active ingredient/ha, 4 weeks, scale of nine ratings
Protocol: as §1, with “Immediately after sowing,” for “When the test plants are at the 2- to 3-leaf stage,”, “grown” for “grown on”, “4” for “2 to 3”, “(Eupho), Brachiaria (Brachi).” for “(Eupho).”

Stellaria (Stella) [15] = experiment: Pre-emergence herbicidal action (Example B1); design: key: 1=total damage; 9=no action; Ratings of from 1 to 4 (especially from 1 to 3) indicate good to very good herbicidal action; details: 1000 g of active ingredient/ha, 4 weeks, scale of nine ratings
Protocol: as §1, with “Immediately after sowing,” for “When the test plants are at the 2- to 3-leaf stage,”, “grown” for “grown on”, “4” for “2 to 3”, “(Eupho), Brachiaria (Brachi).” for “(Eupho).”

Chenopodium (Cheno) [16] = experiment: Pre-emergence herbicidal action (Example B1); design: key: 1=total damage; 9=no action; Ratings of from 1 to 4 (especially from 1 to 3) indicate good to very good herbicidal action; details: 1000 g of active ingredient/ha, 4 weeks, scale of nine ratings
Protocol: as §1, with “Immediately after sowing,” for “When the test plants are at the 2- to 3-leaf stage,”, “grown” for “grown on”, “4” for “2 to 3”, “(Eupho), Brachiaria (Brachi).” for “(Eupho).”

Compound | Post-emergence herbicidal action rating, Seta (Setaria (Seta) [1]) | Post-emergence herbicidal action rating, Pani (Panicum (Pani) [2]) | Post-emergence herbicidal action rating, Cheno (Chenopodium (Cheno) [3]) | Post-emergence herbicidal action rating, Echino (Ds) [4] | Post-emergence herbicidal action rating, Eupho (Euphorbia (Eupho) [5]) | Post-emergence herbicidal action rating, Amar (Amaranthus (Amar) [6]) | Herbicidal rating Eupho (Euphorbia (Eupho) [7]) | Herbicidal rating Amar (Amaranthus (Amar) [8]) | Herbicidal rating Seta (Setaria (Seta) [9]) | Herbicidal rating Pani (Panicum (Pani) [10]) | Herbicidal rating Brachi (Brachiaria (Brachi)) | Herbicidal rating Echino (Ds) [11] | Post-emergence herbicidal action rating, Veronica (Veronica [12]) | Post-emergence herbicidal action rating, Stella (Stellaria (Stella) [13]) | Herbicidal rating Veronica (Veronica [14]) | Herbicidal rating Stella (Stellaria (Stella) [15]) | Herbicidal rating Cheno (Chenopodium (Cheno) [16])
COc1cc(Cl)cnc1OCC#Cc1cccc(OCC#N)n1 [1.063, 2-[3-(6-cyanomethoxy-pyrid-2-yl)-prop-2-ynyloxy]-5-chloro-3-methoxypyridine] | 5 | 3 | 2 | 3 | 1 | 2 | 1 | 1 | 2 | 1 | 1 | 4 |  |  |  |  | 
COc1cc(Cl)cnc1OCC#Cc1ccc(Cl)nc1 [2.006, 5-chloro-2-[3-(6-chloro-pyrid-3-yl)-prop-2-ynyloxy]-3-methoxy-pyridine] | 2 | 2 | 2 |  | 1 | 2 | 1 | 1 | 1 | 1 | 1 | 1 | 2 | 2 | 5 | 1 | 
COc1cc(F)cnc1OCC#Cc1ccc(Cl)nc1 [2.005, 2-[3-(6-chloro-pyrid-3-yl)-prop-2-ynyloxy]-5-fluoro-3-methoxy-pyridine] | 3 | 4 | 3 |  | 1 | 1 | 5 |  | 4 | 4 | 1 | 1 | 2 | 2 | 4 | 1 | 1
